Measured values taken from US10940173B2, “Cannabis oil extracts and compositions” (priority 2015, dated 2021).
Where two headings read alike, the source gives them in different places.

What was measured:
Assay type in all cases: cell-based
CNR1 (also known as CB1) [1] = biological target: T1, CNR1 (also known as CB1) (Homo sapiens, UniProt P21554); settings: read-out: CNR1 cAMP EC50
CNR2 (also known as CB2) [2] = biological target: T2, CNR2 (also known as CB2) (Homo sapiens, UniProt P34972); assay: β-arrestin GPCR assay (PathHunter), CNR2; set-up: β-galactosidase enzyme fragment (complementation partner); settings: β-arrestin recruitment
T2 sequence (P34972 whole entry, the tested form may be a part): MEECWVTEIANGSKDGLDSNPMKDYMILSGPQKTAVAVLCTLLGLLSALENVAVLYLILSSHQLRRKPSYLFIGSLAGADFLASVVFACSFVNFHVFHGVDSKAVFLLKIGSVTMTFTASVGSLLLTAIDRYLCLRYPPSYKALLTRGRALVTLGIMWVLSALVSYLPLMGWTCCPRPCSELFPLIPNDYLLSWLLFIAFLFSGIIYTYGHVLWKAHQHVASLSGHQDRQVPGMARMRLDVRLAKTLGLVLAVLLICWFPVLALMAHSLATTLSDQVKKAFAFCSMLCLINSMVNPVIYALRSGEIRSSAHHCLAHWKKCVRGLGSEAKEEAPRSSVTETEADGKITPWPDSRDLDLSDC

CNR1 (also known as CB1) [3] = biological target: T1, CNR1 (also known as CB1); set-up: β-galactosidase enzyme fragment (complementation partner); settings: read-out: CNR1 β-Arrestin EC50
CNR2 (also known as CB2) [4] = biological target: T2, CNR2 (also known as CB2); assay: cAMP competitive inhibition immunoassay (HitHunter), CNR2; settings: cAMP assay

T1 sequence (P21554 whole entry, the tested form may be a part): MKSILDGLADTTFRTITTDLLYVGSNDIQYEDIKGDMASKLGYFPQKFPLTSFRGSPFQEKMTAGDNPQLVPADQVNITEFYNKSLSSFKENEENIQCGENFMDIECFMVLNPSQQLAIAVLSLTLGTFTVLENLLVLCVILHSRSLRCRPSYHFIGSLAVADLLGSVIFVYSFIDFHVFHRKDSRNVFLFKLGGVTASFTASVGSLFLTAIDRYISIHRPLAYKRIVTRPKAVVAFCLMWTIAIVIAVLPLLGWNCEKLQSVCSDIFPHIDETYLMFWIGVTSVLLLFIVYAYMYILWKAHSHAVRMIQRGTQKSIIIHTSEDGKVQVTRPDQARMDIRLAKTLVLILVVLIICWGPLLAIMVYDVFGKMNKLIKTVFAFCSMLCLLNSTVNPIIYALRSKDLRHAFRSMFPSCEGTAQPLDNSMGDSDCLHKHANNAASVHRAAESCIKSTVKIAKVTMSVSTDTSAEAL

Which results are given for `CCCCCc1cc(O)c2c(c1)OC(C)(C)[C@@H]1CCC(CO)=C[C@@H]21` [Example 11-OH-THC]?
EC50 (CNR1 (also known as CB1) [1]): 10.8 nM; EC50 (CNR2 (also known as CB2) [2]): > 16700 nM; EC50 (CNR1 (also known as CB1) [3]): > 16700 nM; EC50 (CNR2 (also known as CB2) [4]): 571 nM
